Measurements from patent US9701709B2 (REATA PHARMACEUTICALS, INC., priority 2012, dated 2017).
Read-outs that look alike come from different tables or passages of the source.

How the values were obtained:
[1] = test system: human NQO1 ARE (Nrf2) in HuH-7 human hepatoma cells; assay: NQO1-ARE luciferase reporter in HuH-7; type: cell-based; details: 15.6 nM, 18 h
Source text: The first luciferase reporter tested was under the control of a single ARE derived from the promoter of the human NQO1 gene, which allows for quantitative assessment of the endogenous activity of the Nrf2 transcription factor in cultured mammalian cells. […] The NQO1-ARE-luciferase reporter plasmid was constructed by inserting the human NQO1-ARE ([NT] ID NO: 31) into the pLuc-MCS vector using HindIII/XhoI cloning sites (GenScript Corp., Piscataway, N.J.). […] Firefly and Renilla luciferase activity was assayed by Dual-Glo Luciferase Assay (cat # E2920, Promega), and the luminescence signal was measured on an L-Max II luminometer (Molecular Devices). Firefly luciferase activity was normalized to the Renilla activity, and fold induction over a vehicle control (DMSO) of normalized Firefly activity was calculated. […] Values represent the average of three independent experiments.

[2] = test system: NADPH levels in HCT-116 cells; assay: WST-1 absorbance as marker of NADPH in HCT-116; type: cell-based; details: HCT-116, 24 h
Source text: WST-1 absorbance is commonly used to assess cell viability by measuring glycolytic production of NAD(P)H by viable cells. Therefore, in situations where NADPH production increases in the absence of any effect on cell viability, WST-1 absorbance also increases (Berridge et al. Biochemica 4:14-19, 1996, which is incorporated herein by reference).

[3] = test system: TNF-α-induced NF-κB activation in A549/NF-κB-Luc cells; assay: TNF-α-induced NF-κB luciferase reporter in A549/NF-κB-Luc; type: cell-based; details: Homo sapiens
Source text: (b) TNF-α-induced activation of an NF-κB luciferase reporter in the human A549 cell line.
NF-κB is a transcription factor that plays a central role in the regulation of many immune and inflammatory responses. […] The NIH3T3/NF-κB-luc cell line maintains a chromosomal integration of a Firefly luciferase reporter construct regulated by eight copies of the NF-κB response element. The effects of these compounds can be quantified by measuring the value of the NF-κB IC50.

[4] = test system: bleomycin-induced pulmonary fibrosis; assay: Bleomycin-induced pulmonary fibrosis in mice; type: in vivo, mouse; details: 10, 30, or 100 mg/kg oral gavage daily for 39 days
[5] = Oral pharmacokinetics in rats; type: in vivo, rat; details: oral suspension, 10 to 100 mg/kg
Method: (§1) Measurements were performed on TQD and QToF mass spectrometers (Waters).
(§2) Following oral administration of a suspension formulation at doses of 10 to 100 mg/kg, maximal concentrations were observed within 1 to 2 h in mice, and within 1 to 24 h in rats and monkeys.

[6] = Oral pharmacokinetics in monkeys; type: in vivo, monkey; details: oral suspension, 10 to 100 mg/kg
Method: as §1, §2

[7] = Topical pharmacokinetics in rats; type: in vivo, rat; details: 0.01% to 3% suspension in sesame oil
Source text: The topical administration was formulated as a suspension in sesame oil.

[8] = Metabolism in monkey liver microsomes; type: in vitro ADME; details: 60-min incubation, NADPH and UGT
[9] = Metabolism in human liver microsomes; type: in vitro ADME; details: 60-min incubation, NADPH and UGT
CYP2C8 = CYP2C8 (Homo sapiens, UniProt P10632); assay: CYP450 inhibition in pooled human liver microsomes, CYP2C8; type: in vitro ADME; details: read-out: Ki, direct inhibition of CYP2C8
CYP2C8, sequence (P10632 whole entry): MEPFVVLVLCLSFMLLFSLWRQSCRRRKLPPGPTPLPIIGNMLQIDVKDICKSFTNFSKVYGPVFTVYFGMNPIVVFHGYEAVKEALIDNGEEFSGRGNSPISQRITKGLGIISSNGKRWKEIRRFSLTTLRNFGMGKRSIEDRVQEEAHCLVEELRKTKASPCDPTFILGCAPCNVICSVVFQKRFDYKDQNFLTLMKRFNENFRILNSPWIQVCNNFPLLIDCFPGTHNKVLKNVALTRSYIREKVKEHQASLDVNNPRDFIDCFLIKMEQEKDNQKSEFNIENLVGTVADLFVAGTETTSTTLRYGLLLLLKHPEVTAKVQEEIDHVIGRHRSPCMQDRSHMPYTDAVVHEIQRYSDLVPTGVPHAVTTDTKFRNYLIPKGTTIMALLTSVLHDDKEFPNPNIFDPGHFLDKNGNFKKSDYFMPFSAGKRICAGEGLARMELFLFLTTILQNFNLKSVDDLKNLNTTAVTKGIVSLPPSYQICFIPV
Source text: (§3) In addition, there was little or no evidence of metabolism-dependent inhibition of any of the enzymes tested.

CYP2C9 = CYP2C9 (Homo sapiens, UniProt P11712); assay: CYP450 inhibition in pooled human liver microsomes, CYP2C9; type: in vitro ADME; details: highest concentration tested (3 μM)
CYP2C9, sequence (P11712 whole entry): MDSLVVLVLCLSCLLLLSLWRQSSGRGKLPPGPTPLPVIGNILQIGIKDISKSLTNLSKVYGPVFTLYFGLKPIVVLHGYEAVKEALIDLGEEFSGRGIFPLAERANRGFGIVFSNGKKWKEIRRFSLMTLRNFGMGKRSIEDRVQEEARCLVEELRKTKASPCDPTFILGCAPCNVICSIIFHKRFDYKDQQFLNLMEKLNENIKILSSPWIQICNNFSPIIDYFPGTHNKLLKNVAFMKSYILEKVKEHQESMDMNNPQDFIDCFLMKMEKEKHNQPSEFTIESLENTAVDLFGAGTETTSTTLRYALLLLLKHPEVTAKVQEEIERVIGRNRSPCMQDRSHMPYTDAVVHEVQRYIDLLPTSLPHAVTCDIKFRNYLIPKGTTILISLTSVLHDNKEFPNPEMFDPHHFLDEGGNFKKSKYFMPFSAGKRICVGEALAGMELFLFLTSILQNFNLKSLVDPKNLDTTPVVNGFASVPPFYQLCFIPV
Source text: as §3

CYP2D6 = CYP2D6 (Homo sapiens, UniProt P10635); assay: CYP450 inhibition in pooled human liver microsomes, CYP2D6; type: in vitro ADME; details: highest concentration tested (3 μM)
CYP2D6, sequence (P10635 whole entry): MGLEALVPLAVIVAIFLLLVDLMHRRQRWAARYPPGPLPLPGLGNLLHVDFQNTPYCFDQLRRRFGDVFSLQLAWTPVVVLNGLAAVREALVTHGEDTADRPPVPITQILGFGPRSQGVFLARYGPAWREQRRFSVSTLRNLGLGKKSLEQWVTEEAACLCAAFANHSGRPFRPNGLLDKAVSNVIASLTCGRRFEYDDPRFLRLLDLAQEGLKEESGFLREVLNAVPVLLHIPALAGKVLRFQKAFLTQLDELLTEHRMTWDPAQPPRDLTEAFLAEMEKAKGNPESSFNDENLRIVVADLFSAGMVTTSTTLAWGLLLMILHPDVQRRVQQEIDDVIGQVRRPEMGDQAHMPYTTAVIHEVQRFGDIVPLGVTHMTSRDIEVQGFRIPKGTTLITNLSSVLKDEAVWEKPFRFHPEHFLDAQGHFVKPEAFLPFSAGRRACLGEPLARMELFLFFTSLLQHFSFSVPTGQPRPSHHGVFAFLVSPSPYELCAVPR
Source text: as §3

[10] = test system: LPS-induced NO (plasma NOx, Griess Reaction); assay: Suppression of NO in vivo after LPS in CD-1 mice; design: species or system mouse; details: LPS 5 mg/kg 24 h later
Method: FIG. 51—Dose-dependent suppression of NO in vivo by 63415. CD-1 mice (n=6) were dosed with DMSO or […] by oral gavage. LPS (5 mg/kg) was administered 24 h later. Twenty-four hours after LPS administration, whole blood was collected for NO assay. NO inhibition was determined by Griess Reaction from reduced, de-proteinated plasma.

[11] = test system: micronucleated polychromatic erythrocytes; assay: In vivo micronucleus study
[12] = 28-day toxicity study in rats; type: in vivo, rat
[13] = Plasma protein binding (ultracentrifugation), human
[14] = Plasma protein binding (ultracentrifugation), monkey

CC1(C)CC[C@]2(NC(=O)C(C)(F)F)CC[C@]3(C)[C@H](C(=O)C=C4[C@@]5(C)C=C(C#N)C(=O)C(C)(C)[C@@H]5CC[C@]43C)[C@@H]2C1 [RTA 408, N-((4aS,6aR,6bS,8aR,12aS,14aR,14bS)-11-cyano-2,2,6a,6b,9,9,12a-heptamethyl-10,14-dioxo-1,2,3,4,4a,5,6,6a,6b,7,8,8a,9,10,12a,14,14a,14b-octadecahydropicen-4a-yl)-2,2-difluoropropanamide]
Induction of luciferase activity, NQO1-ARE reporter [1]: ~2 fold | WST-1 absorbance (marker of NADPH) [2]: increased WST-1 absorbance in a dose-dependent manner | IC50 ([3]; not viability normalized, read-out: NF-κB IC50, human A549 cell line (further experimentation)): 1700 nM | IC50 ([3]; read-out: NF-κB IC50, human A549 cell line, viability normalized): 1700 nM | Inflammation and interstitial fibrosis (lung histology) [4]: no statistically significant effects were observed | Time of maximal concentrations [5]: 1 to 24 h | Time of maximal concentrations [6]: 1 to 24 h | Plasma concentrations after topical administration [7]: lower plasma concentrations relative to similar oral dosing | Parent molecule remaining [8]: < 10% | Parent molecule remaining [9]: < 10% | Ki (CYP2C8): ~500 nM | inhibition at 3 µM (CYP2C9): < 50% | inhibition at 3 µM (CYP2D6): < 50% | NOx Levels (% vs LPS Controls) ([10]; 13 mg/kg oral gavage): 30% | NOx Levels (% vs LPS Controls) ([10]; 25 mg/kg oral gavage): 18% | NOx Levels (% vs LPS Controls) ([10]; 50 mg/kg oral gavage): 16% | Change from Control (%) ([11]; 125 mg/kg, 24-h timepoint): −8% | Number of MPCE/1000 PCE (Mean +/− SD) ([11]; 125 mg/kg, 24-h timepoint): 0.3 ± 0.27 | Number of MPCE/PCE Scored ([11]; 125 mg/kg, 24-h timepoint): 3/10000 | PCE/Total Erythrocytes (Mean +/− SD) ([11]; 125 mg/kg, 24-h timepoint): 0.543 ± 0.03 | Change from Control (%) ([11]; 125 mg/kg, 48-h timepoint): −14% | Number of MPCE/1000 PCE (Mean +/− SD) ([11]; 125 mg/kg, 48-h timepoint): 0.2 ± 0.27 | Number of MPCE/PCE Scored ([11]; 125 mg/kg, 48-h timepoint): 2/10000 | PCE/Total Erythrocytes (Mean +/− SD) ([11]; 125 mg/kg, 48-h timepoint): 0.453 ± 0.03 | Change from Control (%) ([11]; 250 mg/kg, 24-h timepoint): −12% | Number of MPCE/1000 PCE (Mean +/− SD) ([11]; 250 mg/kg, 24-h timepoint): 0.3 ± 0.27 | Number of MPCE/PCE Scored ([11]; 250 mg/kg, 24-h timepoint): 3/10000 | PCE/Total Erythrocytes (Mean +/− SD) ([11]; 250 mg/kg, 24-h timepoint): 0.520 ± 0.06 | Change from Control (%) ([11]; 250 mg/kg, 48-h timepoint): −26% | Number of MPCE/1000 PCE (Mean +/− SD) ([11]; 250 mg/kg, 48-h timepoint): 0.2 ± 0.27 | Number of MPCE/PCE Scored ([11]; 250 mg/kg, 48-h timepoint): 2/10000 | PCE/Total Erythrocytes (Mean +/− SD) ([11]; 250 mg/kg, 48-h timepoint): 0.391 ± 0.02 | Change from Control (%) ([11]; 500 mg/kg, 24-h timepoint): −28% | Number of MPCE/1000 PCE (Mean +/− SD) ([11]; 500 mg/kg, 24-h timepoint): 0.0 ± 0.00 | Number of MPCE/PCE Scored ([11]; 500 mg/kg, 24-h timepoint): 0/10000 | PCE/Total Erythrocytes (Mean +/− SD) ([11]; 500 mg/kg, 24-h timepoint): 0.426 ± 0.07 | Change from Control (%) ([11]; 500 mg/kg, 48-h timepoint): −36% | Number of MPCE/1000 PCE (Mean +/− SD) ([11]; 500 mg/kg, 48-h timepoint): 0.3 ± 0.45 | Number of MPCE/PCE Scored ([11]; 500 mg/kg, 48-h timepoint): 3/10000 | PCE/Total Erythrocytes (Mean +/− SD) ([11]; 500 mg/kg, 48-h timepoint): 0.339 ± 0.05 | Change from Control (%) ([11]; 1000 mg/kg, 24-h timepoint): −15% | Number of MPCE/1000 PCE (Mean +/− SD) ([11]; 1000 mg/kg, 24-h timepoint): 0.2 ± 0.27 | Number of MPCE/PCE Scored ([11]; 1000 mg/kg, 24-h timepoint): 2/10000 | PCE/Total Erythrocytes (Mean +/− SD) ([11]; 1000 mg/kg, 24-h timepoint): 0.498 ± 0.05 | Change from Control (%) ([11]; 1000 mg/kg, 48-h timepoint): −35% | Number of MPCE/1000 PCE (Mean +/− SD) ([11]; 1000 mg/kg, 48-h timepoint): 0.1 ± 0.22 | Number of MPCE/PCE Scored ([11]; 1000 mg/kg, 48-h timepoint): 1/10000 | PCE/Total Erythrocytes (Mean +/− SD) ([11]; 1000 mg/kg, 48-h timepoint): 0.344 ± 0.04 | Change from Control (%) ([11]; 1500 mg/kg, 24-h timepoint): −15% | Number of MPCE/1000 PCE (Mean +/− SD) ([11]; 1500 mg/kg, 24-h timepoint): 0.4 ± 0.22 | Number of MPCE/PCE Scored ([11]; 1500 mg/kg, 24-h timepoint): 4/10000 | PCE/Total Erythrocytes (Mean +/− SD) ([11]; 1500 mg/kg, 24-h timepoint): 0.499 ± 0.06 | Change from Control (%) ([11]; 1500 mg/kg, 48-h timepoint): −39% | Number of MPCE/1000 PCE (Mean +/− SD) ([11]; 1500 mg/kg, 48-h timepoint): 0.4 ± 0.42 | Number of MPCE/PCE Scored ([11]; 1500 mg/kg, 48-h timepoint): 4/10000 | PCE/Total Erythrocytes (Mean +/− SD) ([11]; 1500 mg/kg, 48-h timepoint): 0.376 ± 0.05 | Change from Control (%) ([11]; 2000 mg/kg, 24-h timepoint): −10% | Number of MPCE/1000 PCE (Mean +/− SD) ([11]; 2000 mg/kg, 24-h timepoint): 0.2 ± 0.27 | Number of MPCE/PCE Scored ([11]; 2000 mg/kg, 24-h timepoint): 2/10000 | PCE/Total Erythrocytes (Mean +/− SD) ([11]; 2000 mg/kg, 24-h timepoint): 0.531 ± 0.05 | Change from Control (%) ([11]; 2000 mg/kg, 48-h timepoint): −32% | Number of MPCE/1000 PCE (Mean +/− SD) ([11]; 2000 mg/kg, 48-h timepoint): 0.1 ± 0.22 | Number of MPCE/PCE Scored ([11]; 2000 mg/kg, 48-h timepoint): 1/10000 | PCE/Total Erythrocytes (Mean +/− SD) ([11]; 2000 mg/kg, 48-h timepoint): 0.360 ± 0.03 | Genotoxicity in the In Vivo Micronucleus Study ([11]; 125-2000 mg/kg, 24-h and 48-h timepoints): 63415 is Negative for Genotoxicity in the In Vivo Micronucleus Study | Transaminases [12]: Transaminase elevations were observed | fraction unbound [13]: 0.03 | fraction unbound [14]: 0.05
